In ChEMBL document CHEMBL4190355, “Allosteric Modulators of the M4 Muscarinic Acetylcholine Receptor” (ACS Med Chem Lett, 2017):

Target: T1, Muscarinic acetylcholine receptor M4 (Homo sapiens) (UniProt P08173)
T1 sequence (whole entry): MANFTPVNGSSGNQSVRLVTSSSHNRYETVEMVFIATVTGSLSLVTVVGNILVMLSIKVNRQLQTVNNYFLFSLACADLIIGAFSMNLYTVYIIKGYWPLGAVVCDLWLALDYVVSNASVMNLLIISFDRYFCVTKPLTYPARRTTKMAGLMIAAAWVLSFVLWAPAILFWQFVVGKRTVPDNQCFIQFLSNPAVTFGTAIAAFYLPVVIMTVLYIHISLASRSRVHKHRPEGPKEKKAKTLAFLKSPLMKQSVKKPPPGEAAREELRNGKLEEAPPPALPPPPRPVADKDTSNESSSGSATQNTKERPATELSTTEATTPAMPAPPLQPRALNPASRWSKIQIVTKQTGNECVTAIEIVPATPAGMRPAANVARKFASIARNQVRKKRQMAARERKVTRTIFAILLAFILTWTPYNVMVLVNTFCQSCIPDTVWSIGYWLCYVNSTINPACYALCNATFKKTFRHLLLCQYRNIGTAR
Assay: Positive allosteric modulation of human muscarinic acetylcholine receptor M4 expressed in CHOK1 cells assessed as increase in acetylcholine-induced […] preincubated for 4 mins followed by acetylcholine addition measured for 3.5 mins by FLIPR assay
Format: functional, cell-based

SMILES | IP [µM]
CCOc1ccc(OC2CCN(c3nc4c(cc3C)C(=O)N(C)[C@H]4CO)CC2)cn1 | 8.62
Cc1cc2c(nc1N1CCC(OC3CCOC3)CC1)CNC2=O (centres undefined) | 11.3
Cc1cc2c(nc1N1CCC(Oc3cnc4[nH]nc(C)c4c3)CC1)CNC2=O | 6.07
COc1ccc(O[C@H]2CCN(c3nc4c(cc3C)C(=O)NC4)C[C@H]2C)cn1 | 30
COCCOC1CCN(c2nc3c(cc2C)C(=O)NC3)CC1 | 11.2
CCN1C(=O)c2c(nc(N3CCC(Oc4ccc5c(c4)COC5)CC3)c(C)c2C)[C@@H]1CO | 240
COc1ccc(O[C@@H]2CCN(c3nc4c(cc3C)C(=O)N(C)[C@H]4CO)C[C@H]2F)cn1 | 8.06
Cc1cc2c(nc1N1CCC(OC[C@@]3(C)C[C@H]3C#N)CC1)CNC2=O | 30
Cc1cc2c(nc1N1CCC(Oc3ccc4c(n3)COC4)CC1)[C@H](CO)N(C)C2=O | 30
